Source: PubChem BioAssay (NCI)
Where “and” joins values, the source holds several entries; their conditions need not be identical. Equal values may be shown once.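 Compound exposure: 48 hours, 5 concentrations, 96-well plates. The concentration for 50% growth inhibition is given as GI50. TGI: concentration producing complete growth inhibition.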

Assays:
Assay in all cases: NCI tumour cell line growth inhibition, 48 h
A549 NSCLC = test system: A549 NSCLC
HL-60(TB) leukemia = test system: HL-60(TB) leukemia
SF-268 CNS = test system: SF-268 CNS
SK-MEL-5 melanoma = test system: SK-MEL-5 melanoma
NCI/ADR-RES ovarian = test system: NCI/ADR-RES ovarian
DMS 114 small cell lung = test system: DMS 114 small cell lung
NCI-H460 lung = test system: NCI-H460 lung
LOX IMVI melanoma = test system: LOX IMVI melanoma
HOP-18 NSCLC = test system: HOP-18 NSCLC
SNB-78 CNS = test system: SNB-78 CNS
DMS 273 small cell lung = test system: DMS 273 small cell lung
SK-MEL-28 melanoma = test system: SK-MEL-28 melanoma
HCT-116 colon = test system: HCT-116 colon
COLO 205 colon = test system: COLO 205 colon
SW-620 colon = test system: SW-620 colon
SN12C renal = test system: SN12C renal
SK-OV-3 ovarian = test system: SK-OV-3 ovarian
P388/ADR leukemia = test system: P388/ADR leukemia
A498 renal = test system: A498 renal
NCI-H522 lung = test system: NCI-H522 lung
SNB-19 CNS = test system: SNB-19 CNS
NCI-H226 lung = test system: NCI-H226 lung
XF 498 CNS = test system: XF 498 CNS
DLD-1 colon = test system: DLD-1 colon
NCI-H23 lung = test system: NCI-H23 lung
MOLT-4 leukemia = test system: MOLT-4 leukemia
UACC-62 melanoma = test system: UACC-62 melanoma
OVCAR-8 ovarian = test system: OVCAR-8 ovarian
IGROV1 ovarian = test system: IGROV1 ovarian
KM12 colon = test system: KM12 colon
SF-295 CNS = test system: SF-295 CNS
EKVX NSCLC = test system: EKVX NSCLC
MALME-3M melanoma = test system: MALME-3M melanoma
M19-MEL melanoma = test system: M19-MEL melanoma
K-562 leukemia = test system: K-562 leukemia
HOP-92 NSCLC = test system: HOP-92 NSCLC
MCF7 breast = test system: MCF7 breast
UACC-257 melanoma = test system: UACC-257 melanoma
HOP-62 NSCLC = test system: HOP-62 NSCLC
HT29 colon = test system: HT29 colon
RPMI-8226 leukemia = test system: RPMI-8226 leukemia
OVCAR-5 ovarian = test system: OVCAR-5 ovarian
HCT-15 colon = test system: HCT-15 colon
OVCAR-4 ovarian = test system: OVCAR-4 ovarian
UO-31 renal = test system: UO-31 renal
OVCAR-3 ovarian = test system: OVCAR-3 ovarian
SNB-75 CNS = test system: SNB-75 CNS
CAKI-1 renal = test system: CAKI-1 renal
HCC-2998 colon = test system: HCC-2998 colon
SN12K1 renal = test system: SN12K1 renal
KM20L2 colon = test system: KM20L2 colon
SF-539 CNS = test system: SF-539 CNS
SK-MEL-2 melanoma = test system: SK-MEL-2 melanoma
U251 CNS = test system: U251 CNS
CCRF-CEM leukemia = test system: CCRF-CEM leukemia

CC/C=C\C/C=C\C/C=C\CCCCCCCC(=O)OC
TGI (A549 NSCLC): > 100 µM | TGI (HL-60(TB) leukemia): 49.9 µM | TGI (SF-268 CNS): > 100 µM | TGI (SK-MEL-5 melanoma): > 100 µM | TGI (NCI/ADR-RES ovarian): > 100 µM | GI50 (DMS 114 small cell lung): 83.3 µM | TGI (DMS 114 small cell lung): > 100 µM | TGI (NCI-H460 lung): > 100 µM | GI50 (LOX IMVI melanoma): 25 µM | TGI (LOX IMVI melanoma): 68.4 µM and 38.3 µM | TGI (HOP-18 NSCLC): > 100 µM | GI50 (SNB-78 CNS): > 100 µM | TGI (SNB-78 CNS): > 100 µM | TGI (DMS 273 small cell lung): > 100 µM | TGI (SK-MEL-28 melanoma): > 100 µM | GI50 (HCT-116 colon): 70.6 µM | TGI (HCT-116 colon): > 100 µM | GI50 (COLO 205 colon): > 100 µM | TGI (COLO 205 colon): > 100 µM | TGI (SW-620 colon): > 100 µM | TGI (SN12C renal): > 100 µM | TGI (SK-OV-3 ovarian): > 100 µM | TGI (P388/ADR leukemia): 66.3 µM | TGI (A498 renal): > 100 µM | TGI (NCI-H522 lung): > 100 µM | TGI (SNB-19 CNS): > 100 µM | TGI (NCI-H226 lung): > 100 µM | TGI (XF 498 CNS): > 100 µM | TGI (DLD-1 colon): > 100 µM | TGI (NCI-H23 lung): > 100 µM | TGI (MOLT-4 leukemia): > 100 µM | TGI (UACC-62 melanoma): > 100 µM | GI50 (OVCAR-8 ovarian): 0.0205 µM | TGI (OVCAR-8 ovarian): 11.8 µM and > 100 µM | TGI (IGROV1 ovarian): > 100 µM | TGI (KM12 colon): > 100 µM | TGI (SF-295 CNS): > 100 µM | TGI (EKVX NSCLC): > 100 µM | TGI (MALME-3M melanoma): > 100 µM | GI50 (M19-MEL melanoma): 45.1 µM | TGI (M19-MEL melanoma): > 100 µM | GI50 (K-562 leukemia): 39.4 µM | TGI (K-562 leukemia): > 100 µM | TGI (HOP-92 NSCLC): > 100 µM | GI50 (MCF7 breast): 37.8 µM | TGI (MCF7 breast): > 100 µM | TGI (UACC-257 melanoma): > 100 µM | TGI (HOP-62 NSCLC): > 100 µM | TGI (HT29 colon): > 100 µM | GI50 (RPMI-8226 leukemia): 19.8 µM | TGI (RPMI-8226 leukemia): 69.9 µM and > 100 µM | TGI (OVCAR-5 ovarian): > 100 µM | TGI (HCT-15 colon): > 100 µM | TGI (OVCAR-4 ovarian): > 100 µM | TGI (UO-31 renal): > 100 µM | TGI (OVCAR-3 ovarian): > 100 µM | GI50 (SNB-75 CNS): > 100 µM | TGI (SNB-75 CNS): > 100 µM | TGI (CAKI-1 renal): > 100 µM | TGI (HCC-2998 colon): > 100 µM | TGI (SN12K1 renal): > 100 µM | GI50 (KM20L2 colon): > 100 µM | TGI (KM20L2 colon): > 100 µM | TGI (SF-539 CNS): > 100 µM | TGI (SK-MEL-2 melanoma): > 100 µM | TGI (U251 CNS): > 100 µM | GI50 (CCRF-CEM leukemia): 3.72 µM | TGI (CCRF-CEM leukemia): > 100 µM
